Test results taken from patent publication US4352803A, “Novel naphthyridine derivatives, intermediates thereof, processes for preparation thereof, and use thereof” (Dainippon Pharmaceutical Co., Ltd., priority 1978, dated 1982).
In brackets after ≈: the same amount, converted by molar mass. Where two headings read alike, the source gives them in different places.

What was measured:
[1] = test system: Salmonella typhimurium 8-9; assay: In vitro antibacterial activity (MIC), Salmonella typhimurium 8-9; assay type: cell-based; settings: Salmonella enterica; Salmonella typhimurium 8-9; read-out: minimum inhibitory concentration (MIC)
Text: (§1) (MIC) (μg/ml) Method; Chemotherapy, 22(6), 1126 (1974)

[2] = test system: Pseudomonas aeruginosa Tsuchijima; assay: In vitro antibacterial activity (MIC), Pseudomonas aeruginosa Tsuchijima; assay type: cell-based; settings: Pseudomonas aeruginosa Tsuchijima; read-out: minimum inhibitory concentration (MIC)
Text: as §1

[3] = test system: Corynebacterium pyogenes C-21; assay: In vitro antibacterial activity (MIC), Corynebacterium pyogenes C-21; assay type: cell-based; settings: Rhodococcus (subgen. Prescottella) equi, C21; Corynebacterium pyogenes C-21; read-out: minimum inhibitory concentration (MIC)
Text: as §1

[4] = test system: Staphylococcus aureus No. 50774; assay: in vivo efficacy against systemic infection in mice, Staphylococcus aureus No. 50774; settings: NO.50774, in Mus musculus, po, 336 h
Procedure: Male mice (ddY) weighing about 20 g
Intravenous infection with (about
5 × 10^8 cells/mouse) of a bacterial
(§2) Twice, about 5 minutes and 6 hours after infection.

Escherichia coli P-5101 [5] = assay: in vivo efficacy against systemic infection in mice, Escherichia coli P-5101; settings: P5101, in Mus musculus, po, 168 h
Procedure: Male mice (ddY) weighing about 20 g
Intraperitoneal infection with (about
9 × 10^6 cells/mouse) of a bacterial
(§3) suspension in trypto-soy broth with 4% mucin.
as §2

Proteus morganii Kono = assay: In vitro antibacterial activity (MIC), Proteus morganii Kono; assay type: cell-based; settings: Morganella morganii, read-out: minimum inhibitory concentration (MIC)
Text: as §1

Escherichia coli P-5101 [6] = assay: In vitro antibacterial activity (MIC), Escherichia coli P-5101; assay type: cell-based; settings: P5101; Escherichia coli P-5101; read-out: minimum inhibitory concentration (MIC)
Text: as §1

Proteus mirabilis P-2381 = assay: In vitro antibacterial activity (MIC), Proteus mirabilis P-2381; assay type: cell-based; settings: P2381; Proteus mirabilis P-2381; read-out: minimum inhibitory concentration (MIC)
Text: as §1

[7] = test system: Serratia marcescens IFC 3736; assay: In vitro antibacterial activity (MIC), Serratia marcescens IFC 3736; assay type: cell-based; settings: IFC3736; Serratia marcescens IFC 3736; read-out: minimum inhibitory concentration (MIC)
Text: as §1

[8] = test system: Staphylococcus aureus No. 50774; assay: In vitro antibacterial activity (MIC), Staphylococcus aureus No. 50774; assay type: cell-based; settings: Staphylococcus aureus No. 50774; read-out: minimum inhibitory concentration (MIC)
Text: as §1

[9] = test system: Salmonella enteritidis No. 1891; assay: In vitro antibacterial activity (MIC), Salmonella enteritidis No. 1891; assay type: cell-based; settings: Salmonella enterica, read-out: minimum inhibitory concentration (MIC)
Text: as §1

[10] = test system: Streptococcus pyogenes 65A; assay: In vitro antibacterial activity (MIC), Streptococcus pyogenes 65A; assay type: cell-based; settings: Streptococcus pyogenes 65A; read-out: minimum inhibitory concentration (MIC)
Text: as §1

[11] = test system: Klebsiella pneumoniae No. 13; assay: In vitro antibacterial activity (MIC), Klebsiella pneumoniae No. 13; assay type: cell-based; settings: Klebsiella pneumoniae No. 13; read-out: minimum inhibitory concentration (MIC)
Text: as §1

[12] = test system: Shigella flexneri 4a P-330; assay: In vitro antibacterial activity (MIC), Shigella flexneri 4a P-330; assay type: cell-based; settings: 4AP330, read-out: minimum inhibitory concentration (MIC)
Text: as §1

[13] = test system: Gram-positive bacteria and Gram-negative bacteria; assay: In vitro antibacterial activity against 19 strains of bacteria (overall); assay type: cell-based; settings: comparisons are with compounds of the invention
Text: as §1

in vivo = assay: in vivo
Procedure: The number of dead mice was counted after 7 days, and the value of median lethal dose (LD50, mg/kg) was calculated in accordance with the Behrens-Kaerber method.

[14] = test system: Pseudomonas aeruginosa No. 12; assay: in vivo efficacy against systemic infection in mice, Pseudomonas aeruginosa No. 12; settings: NO.12, in Mus musculus, po, 168 h
Procedure: Male mice (ddY) weighing about 20 g
(3) Pseudomonas aeruginosa No. 12;
(about 5 × 10^3 cells/mouse) of a bacterial
as §3, §2
The numerals in the table show ED50 (mg/kg). ED50 values were

Escherichia coli P-140a = assay: In vitro antibacterial activity (MIC), Escherichia coli P-140a; assay type: cell-based; settings: Escherichia coli, read-out: minimum inhibitory concentration (MIC)
Text: as §1

[15] = test system: Streptococcus faecalis P-2473; assay: In vitro antibacterial activity (MIC), Streptococcus faecalis P-2473; assay type: cell-based; settings: Enterococcus faecalis
Text: as §1

Shigella flexneri 2a = assay: In vitro antibacterial activity (MIC), Shigella flexneri 2a; assay type: cell-based; settings: read-out: minimum inhibitory concentration (MIC)
Text: as §1

[16] = test system: Pseudomonas aeruginosa No. 12; assay: In vitro antibacterial activity (MIC), Pseudomonas aeruginosa No. 12; assay type: cell-based; settings: Pseudomonas aeruginosa No. 12; read-out: minimum inhibitory concentration (MIC)
Text: as §1

[17] = test system: Escherichia coli NIHJ JC-2; assay: In vitro antibacterial activity (MIC), Escherichia coli NIHJ JC-2; assay type: cell-based; settings: Escherichia coli, NIHJJC2, read-out: minimum inhibitory concentration (MIC)
Text: as §1

[18] = test system: Enterobacter cloacae P-2540; assay: In vitro antibacterial activity (MIC), Enterobacter cloacae P-2540; assay type: cell-based
Text: as §1

[19] = test system: Staphylococcus aureus 209P JC-1; assay: In vitro antibacterial activity (MIC), Staphylococcus aureus 209P JC-1; assay type: cell-based; settings: Staphylococcus aureus 209P JC-1; read-out: minimum inhibitory concentration (MIC)
Text: as §1

[20] = test system: Pseudomonas aeruginosa No. 12; assay: in vivo efficacy on the ascending kidney infection in mice; design: species or system mice (ddY-S); settings: 120 h; ascending kidney infection with Pseudomonas aeruginosa No. 12; po; mice
Procedure: Female mice (ddY-S) weighing 22 to 30 g were anesthetized by intravenous injection of sodium pentobarbital at a dose of 50 mg/kg. Through a small suprapubic incision, the urinary bladder was exposed and then infected by injecting 0.1 ml of a 1:10,000 dilution of Pseudomonas aeruginosa No. 12 cultured for 20 hours in trypto-soy broth, using 0.25 ml syringe with 0.25 mm needle. The mice were restrained from drinking water for a period from 1 day before to 1 day after the infection and treated twice a day for 3 days starting on the day of infection. On the 5th day after infection, the kidneys were harvested for the detection of the bacteria, transversely bisected and stamped on King A Agar, which were incubated at 37° C. overnight. No bacterial finding in the kidneys was regarded as protected from the ascending kindey infection. ED50 values were calculated by probit analysis.

| Compound | MIC [1] [µg/mL] | MIC [2] [µg/mL] | MIC [3] [µg/mL] | ED50 [4] [mg/kg] | ED50 (Escherichia coli P-5101 [5]) [mg/kg] | MIC (Proteus morganii Kono) [µg/mL] | MIC (Escherichia coli P-5101 [6]) [µg/mL] | MIC (Proteus mirabilis P-2381) [µg/mL] | MIC [7] [µg/mL] | MIC [8] [µg/mL] | MIC [11] [µg/mL] | MIC [12] [µg/mL] | ED50 [14] [mg/kg] | MIC (Escherichia coli P-140a) [µg/mL] | MIC (Shigella flexneri 2a) [µg/mL] | MIC [16] [µg/mL] | MIC [17] [µg/mL] | MIC [19] [µg/mL] | further results |
| --- | --- | --- | --- | --- | --- | --- | --- | --- | --- | --- | --- | --- | --- | --- | --- | --- | --- | --- | --- |
| CCn1cc(C(=O)O)c(=O)c2cc(F)c(N3CCN(C)CC3)nc21 [Compound B, 1-Ethyl-6-fluoro-1,4-dihydro-7-(4-methyl-1-piperazinyl)-4-oxo-1,8-naphthyridine-3-carboxylic acid] | 0.2 (≈ 0.598 µM) | 1.56 (≈ 4.67 µM) | 1.56 (≈ 4.67 µM) | 4.8 | 1.2 | 0.78 (≈ 2.33 µM) | 0.2 (≈ 0.598 µM) | 1.56 (≈ 4.67 µM) | 1.56 (≈ 4.67 µM) | 1.56 (≈ 4.67 µM) | 0.39 (≈ 1.17 µM) | 0.78 (≈ 2.33 µM) | 10.6 | 0.39 (≈ 1.17 µM) | 0.39 (≈ 1.17 µM) | 3.13 (≈ 9.36 µM) | 0.39 (≈ 1.17 µM) | 1.56 (≈ 4.67 µM) | MIC ([9]; ENTERITIDIS): 0.1 µg/mL (≈ 0.299 µM); MIC [10]: 6.25 µg/mL (≈ 18.7 µM); antibacterial activity (in words) [13]: equivalent or higher antibacterial activity; toxicity (in words) (in vivo; acute, oral, mice): extremely high toxicity; LD50 at 168 h (in vivo; mouse, in vivo, po): 210 mg/kg; MIC ([15]; P2473, Streptococcus faecalis P-2473, read-out: minimum inhibitory concentration (MIC)): 12.5 µg/mL (≈ 37.4 µM); MIC ([18]; P2540, Enterobacter cloacae P-2540, read-out: minimum inhibitory concentration (MIC)): 0.39 µg/mL (≈ 1.17 µM) |
| CCn1cc(C(=O)O)c(=O)c2cc(F)c(N3CCNCC3)cc21 [Compound D, 1-Ethyl-6-fluoro-1,4-dihydro-4-oxo-7-(1-piperazinyl)quinoline-3-carboxylic acid] | 0.05 (≈ 0.157 µM) | 0.39 (≈ 1.22 µM) | 0.78 (≈ 2.44 µM) | 21.9 | 4.7 | 0.1 (≈ 0.313 µM) | 0.05 (≈ 0.157 µM) | 0.2 (≈ 0.626 µM) | 0.2 (≈ 0.626 µM) | 0.78 (≈ 2.44 µM) | 0.2 (≈ 0.626 µM) | 0.2 (≈ 0.626 µM) | 15.5 | 0.1 (≈ 0.313 µM) | 0.1 (≈ 0.313 µM) | 0.78 (≈ 2.44 µM) | 0.1 (≈ 0.313 µM) | 0.39 (≈ 1.22 µM) | ED50 [20]: 16.1 mg/kg; MIC ([9]; Salmonella enteritidis No. 1891): 0.05 µg/mL (≈ 0.157 µM); MIC ([15]; P2473, read-out: minimum inhibitory concentration (MIC)): 3.13 µg/mL (≈ 9.8 µM); MIC ([18]; Enterobacter cloacae, P2540, read-out: minimum inhibitory concentration (MIC)): 0.1 µg/mL (≈ 0.313 µM) |
